pIC50: −log10 of the molar value.
Assays:
PKCθ = PKCθ (Homo sapiens, UniProt Q04759); test: PKCθ Scintiplate Assay; format: biochemical; details: average value when one or more samples were tested
Protocol: This assay detects the phosphorylation of a biotinylated substrate by kinase utilizing radiolabeled ATP (ATP γ P33). The enzyme is either recombinant full length PKCθ (Panvera, P2996) or the purified recombinant active kinase domain of full length PKCθ (amino acids 362-706). The substrate in this assay is a biotinylated peptide with a sequence of biotin-[…]-CONH2. The assay buffer is composed of 100 mM Hepes, pH7.5, 2 mM MgCl2, 20 mM β-glycerophosphate and 0.008% TritonX 100. A reaction mixture of ATP, ATP γ P33 (PerkinElmer), DTT, lipid activator, and the enzyme is prepared in the assay buffer and added to a 96 well polypropylene plate. The compound (diluted in DMSO in a separate 96-well polypropylene plate) is added to the reaction mixture and incubated at room temperature. Following the incubation, the peptide substrate is added to the reaction mixture to initiate the enzymatic reaction. The reaction is terminated with the addition of a stop solution (10 mM EDTA, 0.2% TritonX100, and 100 mM NaHPO4) and transferred from the assay plate to a washed streptavidin-coated 96 well scintiplate (PerkinElmer). The scintiplate is incubated at room temperature, washed in PBS with 0.1% TritonX 100, and counted in the 1450 Microbeta Trilux (Wallac, Version 2.60). Counts are recorded for each well as corrected counts per minute (CCPM). The counts are considered corrected because they are adjusted according to a P33 normalization protocol, which corrects for efficiency and background differences between the instrument detectors (software version 4.40.01).

[1] = biological target: T1, human PKCθ full length enzyme (Homo sapiens, UniProt Q04759); test: PKCθ IMAP Assay; format: biochemical; details: average value when one or more samples were tested; ATP 6 uM, PKCθ 1 nM
T1 construct: human PKCθ full length enzyme (Panvera Catalog No. P2996); purchased Panvera P2996
T1 sequence (Q04759 whole entry): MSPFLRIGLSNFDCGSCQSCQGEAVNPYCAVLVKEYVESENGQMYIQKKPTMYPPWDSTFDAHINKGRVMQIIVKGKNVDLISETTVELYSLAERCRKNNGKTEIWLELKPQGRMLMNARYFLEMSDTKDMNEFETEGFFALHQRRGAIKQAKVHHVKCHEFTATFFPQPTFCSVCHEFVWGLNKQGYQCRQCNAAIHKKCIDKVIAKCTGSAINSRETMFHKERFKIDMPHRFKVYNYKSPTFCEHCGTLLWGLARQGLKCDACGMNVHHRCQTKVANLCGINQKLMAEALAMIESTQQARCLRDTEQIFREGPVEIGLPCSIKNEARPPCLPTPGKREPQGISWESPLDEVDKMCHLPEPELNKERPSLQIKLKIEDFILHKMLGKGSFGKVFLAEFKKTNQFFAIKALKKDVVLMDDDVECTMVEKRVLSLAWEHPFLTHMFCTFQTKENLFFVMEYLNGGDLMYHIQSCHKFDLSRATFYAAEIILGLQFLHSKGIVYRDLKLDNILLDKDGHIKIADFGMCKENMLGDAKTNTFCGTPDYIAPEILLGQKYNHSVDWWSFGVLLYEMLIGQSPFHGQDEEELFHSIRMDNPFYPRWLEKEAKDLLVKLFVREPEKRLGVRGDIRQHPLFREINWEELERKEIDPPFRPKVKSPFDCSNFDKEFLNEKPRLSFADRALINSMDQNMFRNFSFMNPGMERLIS
Outline: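 IMAP fluorescence polarization after 20 min with binding beads measured phosphorylation of 100 nM 5FAM-peptide. Reactions held 1 nM full-length human PKCθ, 6 uM ATP, 5% DMSO and DTT-containing buffer, 25 min at room temperature. Compounds tested as 2:1 serial dilutions; controls lacked ATP or enzyme.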

Sequence of PKCθ (Q04759 362-706 limits assumed): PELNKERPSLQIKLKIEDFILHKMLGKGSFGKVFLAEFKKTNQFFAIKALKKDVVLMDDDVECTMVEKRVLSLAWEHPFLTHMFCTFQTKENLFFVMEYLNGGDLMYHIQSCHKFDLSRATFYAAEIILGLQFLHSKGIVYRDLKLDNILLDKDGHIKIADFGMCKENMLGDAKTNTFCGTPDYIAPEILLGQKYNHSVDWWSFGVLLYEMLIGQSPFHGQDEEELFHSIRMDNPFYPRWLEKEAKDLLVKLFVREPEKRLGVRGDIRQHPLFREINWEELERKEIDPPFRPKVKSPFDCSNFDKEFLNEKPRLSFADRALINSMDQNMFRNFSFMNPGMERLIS

| Structure (SMILES) | pIC50 (PKCθ) | pIC50 [1] | melting point [°C] |
| --- | --- | --- | --- |
| N#Cc1cnc2sc(-c3ccc(CN4CCOCC4)cc3)cc2c1Nc1ccc2[nH]ccc2c1 [Compound 101, 4-(1H-indol-5-ylamino)-2-[(4-morpholin-4-ylmethyl)phenyl]thieno[2,3-b]pyridine-5-carbonitrile] | 6.43 | 6.40 | 251 to 253 |
| N#Cc1cnc2sc(-c3ccccc3)cc2c1-c1ccc2[nH]ccc2c1 [Compound 131, 4-(1H-indol-5-yl)-2-phenylthieno[2,3-b]pyridine-5-carbonitrile] | < 3.52 |  | > 245 |
| CN1CCN(Cc2ccc(-c3cc4c(Nc5cccc6[nH]ccc56)c(C#N)cnc4s3)cc2)CC1 [Compound 137, 4-(1H-indol-4-ylamino)-2-{4-[(4-methylpiperazin-1-yl)methyl]phenyl}thieno[2,3-b]pyridine-5-carbonitrile] | 7.09 | 7.28 | > 245 |
| N#Cc1cnc2sc(-c3ccc(CN)cc3)cc2c1Nc1ccc2[nH]ccc2c1 [Compound 188, 2-[4-(aminomethyl)phenyl]-4-(1H-indol-5-ylamino)thieno[2,3-b]pyridine-5-carbonitrile] | 7.57 | 7.47 | > 260 |
| CN1CCN(CCC#Cc2csc3ncc(C#N)c(Nc4ccc5[nH]ccc5c4)c23)CC1 [Compound 244, 4-(1H-indol-5-ylamino)-3-[4-(4-methylpiperazin-1-yl)but-1-yn-1-yl]thieno[2,3-b]pyridine-5-carbonitrile] | 6.25 | 6.24 | 184 to 186 |

Continued by rising pIC50 (PKCθ), values first:

| pIC50 (PKCθ) | pIC50 [1] | melting point [°C] | Structure (SMILES) |
| --- | --- | --- | --- |
| 6.28 |  | 226 to 228 | CN1CCN(Cc2ccccc2-c2cc3c(Nc4ccc5[nH]ccc5c4)c(C#N)cnc3s2)CC1 [Compound 185, 4-(1H-indol-5-ylamino)-2-{2-[(4-methylpiperazin-1-yl)methyl]phenyl} thieno[2,3-b]pyridine-5-carbonitrile] |
| 6.96 |  | > 245 | CN1CCN(Cc2ccc(-c3cc4c(Nc5ccc6[nH]ccc6c5)c(C#N)cnc4s3)nc2)CC1 [Compound 203, 4-(1H-indol-5-ylamino)-2-{5-[(4-methylpiperazin-1-yl)methyl]pyridine-2-yl}thieno[2,3-b]pyridine-5-carbonitrile] |
| 7.10 | 6.34 | > 245 | N#Cc1cnc2sc(-c3ccccc3)cc2c1Nc1ccc2[nH]ccc2c1 [Compound 107, 4-(1H-indol-5-ylamino)-2-phenylthieno[2,3-b]pyridine-5-carbonitrile] |
| 7.47 | 7.66 | > 245 | CN1CCN(Cc2cccc(-c3cc4c(Nc5cccc6[nH]ccc56)c(C#N)cnc4s3)c2)CC1 [Compound 140, 4-(1H-indol-4-ylamino)-2-{3-[(4-methylpiperazin-1-yl)methyl]phenyl}thieno[2,3-b]pyridine-5-carbonitrile] |
